Results as given in patent publication US10618869B2, “Oligo-benzamide compounds and their use” (The Board of Regents of the University of Texas System, priority 2010, dated 2020).
Entries after “also recorded” stand apart in the source; their conditions may differ.

Assays:
prostate cancer cells = experiment: Toxicity in vitro and in vivo
From the text: The peptidomimetics of the present invention are non-toxic under in vitro and in vivo conditions. The development of these peptidomimetics represents a quantum leap in the development of a drug to target AR signaling. […] In addition to improvements in the helical face and presentation of the leucines, the inventors have proven efficacy of this system against prostate cancer cell proliferation both in vitro and in vivo. Thus, in contrast to existing technology, the inventors have developed and tested an active peptidomimetic against prostate cancer and other androgen receptor involved cancers.
They have shown that this synthetic peptidomimetic D2 is capable of blocking AR-PELP-1 interaction, nuclear translocation of AR, AR mediated genomic signaling as well as DHT-mediated proliferation of prostate cancer cells in vitro. The IC50 of D2 appears to be around 40 nM. The effect of the D2 peptidomimetic appears to be specific to blocking AR-PELP-1 interaction, as overexpression of AR or PELP-1 may overcome D2-mediated blockade. […] In comparison, administration of either control peptidomimetics or control soluent has no effect on the growth of prostate cancer cells in vitro or in vivo. In addition, the inventors have generated and tested hundreds of variants of D2 and have identified related peptidomimetics with similar or equivalent potency.

[1] = Stability of D2 in culture and in LNCaP cell lysate (HPLC); format: in vitro ADME
From the text: FIGS. 4A-F. (FIG. 4A) Chemical structure of the bis-benzamide (D2). (FIG. 4B) the lowest-energy conformation of D2. (FIG. 4C) the stereoview of the superimposition of D2 on a helical turn.

AR-PELP1 interaction = experiment: DHT-induced AR-PELP1 co-immunoprecipitation in PCa cells; format: cell-based
From the text: FIG. 6. Effect of D1 and D2 on DHT induced AR-PELP1 co-immunoprecipitation in LNCaP cells.
FIGS. 7A-C. Effect of D1 and D2 on DHT induced AR-PELP1 co-immunoprecipitation in LNCaP cells. (FIG. 7A) Model depicts the proposed role for D2 in disrupting the interaction between AR and NR Box proteins such as Hsp27 and PELP1. (FIG. 7B) Effect of increasing concentration of D2 on complex formation between AR and NR Box proteins such as Hsp27 and PELP1, as shown for immunoprecipitation with AR (top panel) and with PELP1 (bottom panel). Input lysates are shown at the bottom. (FIG. 7C) Rescue of D2-induced suppression of AR-PELP1 complex formation: Following transient transfection with increasing concentrations of AR (left panel) or increasing concentration of PELP1 (right panel), LnCAP cells were treated with 10 nM DHT for 24 hours following preincubation with D2 or control D1. Extracts were immunoprecipitated with AR and immunoblotted with PELP1, AR or importin.
FIG. 6 provides confirmation that D2 was directed against the LXXLL (SEQ ID NO: 1) motif and was capable of blocking AR and PELP1 interaction in vivo was obtained from coimmunoprecipitation experiments in LnCaP PCa cells.
D2 was also able to block the DHT- and E2-induced interaction of AR with PELP1 in LAPC4, C4-2, VCAP and CWR22v1 cells. […] The ability of D2 to block AR-PELP1 interaction could be overcome by transient over-expression of PELP1 in a dose-dependent manner.

ARE-luciferase reporter = experiment: DHT-induced transcription from minimal ARE-luciferase reporter; format: cell-based; settings: LNCaP, CWR22v1 and LAPC4 cell lines
From the text: FIG. 9. […] This effect of D2 could be rescued by overexpression of AR (bottom left panel) or PELP1 (bottom right panel).
At the protein level, D2, but not D1, was able to block DHT-induced expression of PSA protein. Again, the suppresion of DHT-induced transcription from an ARE could be overcome by overexpression of either AR or PELP1 ([…]). Overexpression of PELP1 was able to rescue the D2-mediated suppression of DHT-induced transcription nearly back to baseline.

[2] = target: T1, interaction between AR and hsp90 (Homo sapiens, UniProt P10275); experiment: AR-hsp90 interaction (co-immunoprecipitation); format: cell-based; settings: hsp90 lacks a LXXLL motif
T1 construct: endogenous in cells; host or cells: prostate cancer cells
T1 sequence (P10275 1-920): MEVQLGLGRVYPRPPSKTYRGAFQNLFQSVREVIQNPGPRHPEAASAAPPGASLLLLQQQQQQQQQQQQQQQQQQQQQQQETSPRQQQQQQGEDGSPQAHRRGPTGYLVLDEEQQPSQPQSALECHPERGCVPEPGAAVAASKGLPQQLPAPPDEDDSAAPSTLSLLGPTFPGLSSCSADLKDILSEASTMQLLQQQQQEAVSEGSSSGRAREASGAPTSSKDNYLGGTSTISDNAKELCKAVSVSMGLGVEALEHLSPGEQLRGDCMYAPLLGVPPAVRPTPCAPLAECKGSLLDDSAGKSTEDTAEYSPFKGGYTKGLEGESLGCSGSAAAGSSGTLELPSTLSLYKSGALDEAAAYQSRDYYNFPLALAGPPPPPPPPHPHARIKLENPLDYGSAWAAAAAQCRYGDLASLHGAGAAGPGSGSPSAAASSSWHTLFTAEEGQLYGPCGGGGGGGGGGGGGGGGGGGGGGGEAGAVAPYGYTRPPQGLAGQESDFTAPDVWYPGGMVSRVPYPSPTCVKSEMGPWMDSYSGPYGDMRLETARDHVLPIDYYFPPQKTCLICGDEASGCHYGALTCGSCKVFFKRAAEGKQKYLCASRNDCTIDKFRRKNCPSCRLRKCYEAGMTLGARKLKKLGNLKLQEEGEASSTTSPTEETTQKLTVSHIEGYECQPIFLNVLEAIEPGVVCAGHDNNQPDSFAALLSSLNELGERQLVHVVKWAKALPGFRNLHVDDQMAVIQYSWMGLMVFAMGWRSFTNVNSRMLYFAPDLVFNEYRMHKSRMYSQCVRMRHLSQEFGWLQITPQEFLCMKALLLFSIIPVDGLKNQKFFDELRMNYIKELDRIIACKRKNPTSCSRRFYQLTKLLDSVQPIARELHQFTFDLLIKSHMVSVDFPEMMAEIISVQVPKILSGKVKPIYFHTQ

COC(=O)c1ccc(NC(=O)c2ccc([N+](=O)[O-])c(OCC(C)C)c2)c(OCC(C)C)c1 [D2]
toxicity (prostate cancer cells): non-toxic to prostate cancer cells
stability in cell lysate ([1]; LNCaP cell lysate, 37° C., 7 days): stable in cell lysate of LNCaP over 7 days
stability in culture (HPLC) ([1]; in culture, FIG. 4E): single peak on the HPLC
stability of AR or PELP1 (AR-PELP1 interaction): did not adversely affect
DHT- and E2-induced interaction of AR with PELP1 (AR-PELP1 interaction; LAPC4, C4-2, VCAP and CWR22v1 cells): able to block
DHT-induced physical interaction of AR and PELP1 (AR-PELP1 interaction; LnCaP cells, preincubation with 100 nM): blocked
AR-PELP1 interaction, dose dependence (AR-PELP1 interaction; increasing concentration, FIG. 7): blocked AR-PELP1 interaction in a dose-dependent manner
DHT-induced transcription from minimal ARE-luciferase reporter (ARE-luciferase reporter): able to block; also recorded: block DHT-Induced gene expression
interaction between AR and hsp90 [2]: not able to affect
